According to PMC5633905, “Conformational dynamics of the essential sensor histidine kinase WalK” (Acta Crystallographica. Section D, Structural Biology, 2017):

Tests used:
Experiment in all cases: ITC
smVicK (196-450) = target: T1, smVicK (196-450) (Streptococcus mutans, UniProt Q8DT64); type: binding
T1 construct: gene covS; DHp + CA domains, residues 196-450, pET-His vector, expressed in E. coli and purified as lpWalK

lpWalK (370-624) = target: T2, lpWalK (370-624); type: binding, Lactiplantibacillus plantarum; details: 20 mM Tris-HCl pH 8.0, 5 mM MgCl2, 25 °C, fixed 1:1 model
T2 construct: gene walK; catalytic region DHp + CA domains, residues 370-624, N-terminal His tag, pET-His, E. coli BL21(DE3); DHp homodimer

smVicK CA (271-450) = target: T3, smVicK CA (271-450) (Streptococcus mutans, UniProt Q8DT64); type: binding
T3 construct: gene covS
T3 sequence (Q8DT64 entry or part of it): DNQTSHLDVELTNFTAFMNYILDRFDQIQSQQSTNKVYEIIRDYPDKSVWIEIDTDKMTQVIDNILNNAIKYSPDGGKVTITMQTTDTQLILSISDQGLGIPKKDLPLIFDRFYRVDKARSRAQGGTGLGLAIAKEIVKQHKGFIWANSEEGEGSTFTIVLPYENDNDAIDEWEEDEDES

T1 sequence (Q8DT64 entry or part of it): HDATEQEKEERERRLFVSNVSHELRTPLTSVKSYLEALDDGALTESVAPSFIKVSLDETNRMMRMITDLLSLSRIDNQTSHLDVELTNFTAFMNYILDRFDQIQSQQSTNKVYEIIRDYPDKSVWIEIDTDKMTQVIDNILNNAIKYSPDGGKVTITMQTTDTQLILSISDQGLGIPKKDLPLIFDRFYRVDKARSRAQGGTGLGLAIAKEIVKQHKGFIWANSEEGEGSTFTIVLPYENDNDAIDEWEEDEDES

SMILES | Kd (smVicK (196-450)) [µM] | Kd (lpWalK (370-624)) [µM] | Kd (smVicK CA (271-450)) [µM] | Kd (lpWalK (370-624); gamma-phosphate not defined in the crystal) [µM]
Nc1ncnc2c1ncn2[C@@H]1O[C@H](COP(=O)(O)OP(=O)(O)O)[C@@H](O)[C@H]1O [ADP] | 701 ± 165 | 1200 ± 17 | 474 ± 97.5 | –
Nc1ncnc2c1ncn2[C@@H]1O[C@H](COP(=O)(O)OP(=O)(O)NP(=O)(O)O)[C@@H](O)[C@H]1O [AMPPNP] | 538 ± 32 | – | 292 ± 15.2 | 450 ± 6.36
Nc1ncnc2c1ncn2[C@@H]1O[C@H](COP(=O)(O)O)[C@@H](O)[C@H]1O [AMP] | – | 1280 ± 95.5 | – | –
